Values quoted from earlier work in PubChem BioAssay AID1259409 (Chemical Carcinogenesis Research Information System (CCRIS), 2018).

Tested on: rodent chemically induced tumor inhibition, incidence and multiplicity
Assay: CCRIS tumor inhibitor studies
Details: Dose [Inhibitor]: 0, Promoter: NONE USED

Cn1c(=O)c2c(ncn2C)n(C)c1=O
tumour outcome (control, treated, inhibition, significance) (Carcinogen: 7,12-DIMETHYLBENZ[A]ANTHRACENE, 57-97-6, 500 MG/L IN DRINKING WATER OF 58 DAY OLD VIRGIN RATS (STUDY DURATION: 56 WK), Route [Inhibitor]: ORAL, Species: RAT, Strain/Sex: SPRAGUE-DAWLEY/FEMALE, Target Tissue: Type of Lesion: MAMMARY GLAND: FIBROADENOMA, Dose [Carcinogen]: 2 MG/100 G BW ONCE AT 55 D OF AGE): 86%, 68%, 21%, not significant | tumour outcome (control, treated, inhibition, significance) (Carcinogen: 7,12-DIMETHYLBENZ[A]ANTHRACENE, 57-97-6, 500 MG/L IN DRINKING WATER OF 150 DAY OLD PAROUS RATS (STUDY DURATION: 165 D), Route [Inhibitor]: ORAL, Species: RAT, Strain/Sex: SPRAGUE-DAWLEY/FEMALE, Target Tissue: Type of Lesion: MAMMARY GLAND: CARCINOMA, Dose [Carcinogen]: 20 MG/ML IN CORN OIL ONCE AT 135 D OF AGE): 21%, 3%, 86%, not calculated | tumour outcome (control, treated, inhibition, significance) (Carcinogen: 7,12-DIMETHYLBENZ[A]ANTHRACENE, 57-97-6, 500 MG/L IN DRINKING WATER OF 150 DAY OLD PAROUS RATS (STUDY DURATION: 165 D), Route [Inhibitor]: ORAL, Species: RAT, Strain/Sex: SPRAGUE-DAWLEY/FEMALE, Target Tissue: Type of Lesion: MAMMARY GLAND: FIBROADENOMA, Dose [Carcinogen]: 20 MG/ML IN CORN OIL ONCE AT 135 D OF AGE): 62%, 40%, 35%, not significant | tumour outcome (control, treated, inhibition, significance) (Carcinogen: 7,12-DIMETHYLBENZ[A]ANTHRACENE, 57-97-6, 500 MG/L IN DRINKING WATER OF 150 DAY OLD VIRGIN RATS (STUDY DURATION: 165 D), Route [Inhibitor]: ORAL, Species: RAT, Strain/Sex: SPRAGUE-DAWLEY/FEMALE, Target Tissue: Type of Lesion: MAMMARY GLAND: CARCINOMA, Dose [Carcinogen]: 20 MG/ML IN CORN OIL ONCE AT 135 D OF AGE): 45%, 20%, 56%, p<0.05 | tumour outcome (control, treated, inhibition, significance) (Carcinogen: 7,12-DIMETHYLBENZ[A]ANTHRACENE, 57-97-6, 500 MG/L IN DRINKING WATER OF 150 DAY OLD VIRGIN RATS (STUDY DURATION: 165 D), Route [Inhibitor]: ORAL, Species: RAT, Strain/Sex: SPRAGUE-DAWLEY/FEMALE, Target Tissue: Type of Lesion: MAMMARY GLAND: FIBROADENOMA, Dose [Carcinogen]: 20 MG/ML IN CORN OIL ONCE AT 135 D OF AGE): 72%, 43%, 40%, p<0.05 | tumour outcome (control, treated, inhibition, significance) (Carcinogen: 17BETA-ESTRADIOL, 50-28-2, PROGESTERONE, 57-83-0, Carcinogen: 17BETA-ESTRADIOL, 50-28-2, PROGESTERONE, 57-83-0, 500 MG/L IN DISTILLED DRINKING WATER FOR 23 WK BEGINNING 1 WK POST FIRST CARCINOGEN DOSE (STUDY DURATION: 24 WK), Route [Inhibitor]: ORAL, Species: MOUSE, Strain/Sex: GR/A/FEMALE, Target Tissue: Type of Lesion: MAMMARY GLAND: TUMOR, Dose [Carcinogen]: 0.5 MG/L 17BETA-ESTRADIOL IN DRINKING WATER FOR 24 WK AND 30 MG PROGESTERONE IN PELLETS RENEWED EVERY 30 D FOR 24 WK): 55/55 (100%), 52/55 (95%), 5%, not significant | tumour outcome (control, treated, inhibition, significance) (Carcinogen: 17BETA-ESTRADIOL, 50-28-2, PROGESTERONE, 57-83-0, Carcinogen: 17BETA-ESTRADIOL, 50-28-2, PROGESTERONE, 57-83-0, 500 MG/L IN DISTILLED DRINKING WATER FOR 23 WK BEGINNING 1 WK POST FIRST CARCINOGEN DOSE (STUDY DURATION: 24 WK), Route [Inhibitor]: ORAL, Species: MOUSE, Strain/Sex: GRS/SN/FEMALE, Target Tissue: Type of Lesion: MAMMARY GLAND: TUMOR, Dose [Carcinogen]: 0.5 MG/L 17BETA-ESTRADIOL IN DRINKING WATER FOR 24 WK AND 30 MG PROGESTERONE IN PELLETS RENEWED EVERY 30 D FOR 24 WK): 46/47 (98%), 44/45 (98%), 0%, not significant | tumour outcome (control, treated, inhibition, significance) (Carcinogen: BENZO[A]PYRENE, 50-32-8, 1 MG/D FOR 6 WK (STUDY DURATION: 9 WK), Route [Inhibitor]: GAVAGE, Species: MOUSE, Strain/Sex: NIGP(S)/FEMALE, Target Tissue: Type of Lesion: LUNG: ADENOMA, Dose [Carcinogen]: 0.5 MG INJECTED IN THE SCAPULAR REGION OF NEWBORN MICE ONCE): 35%, 21%, 40%, not calculated | tumour outcome (control, treated, inhibition, significance) (Carcinogen: BENZO[A]PYRENE, 50-32-8, 1 MG/D FOR 6 WK (STUDY DURATION: 9 WK), Route [Inhibitor]: GAVAGE, Species: MOUSE, Strain/Sex: NIGP(S)/MALE, Target Tissue: Type of Lesion: LUNG: ADENOMA, Dose [Carcinogen]: 0.5 MG INJECTED IN THE SCAPULAR REGION OF NEWBORN MICE ONCE): 48%, 18%, 63%, not calculated | tumour outcome (control, treated, inhibition, significance) (Carcinogen: BENZO[A]PYRENE, 50-32-8, 2 MG/D FOR 6 WK (STUDY DURATION: 9 WK), Route [Inhibitor]: GAVAGE, Species: MOUSE, Strain/Sex: NIGP(S)/FEMALE, Target Tissue: Type of Lesion: LUNG: ADENOMA, Dose [Carcinogen]: 0.5 MG INJECTED IN THE SCAPULAR REGION OF NEWBORN MICE ONCE): 35%, 5%, 86%, not calculated | tumour outcome (control, treated, inhibition, significance) (Carcinogen: BENZO[A]PYRENE, 50-32-8, 2 MG/D FOR 6 WK (STUDY DURATION: 9 WK), Route [Inhibitor]: GAVAGE, Species: MOUSE, Strain/Sex: NIGP(S)/MALE, Target Tissue: Type of Lesion: LUNG: ADENOMA, Dose [Carcinogen]: 0.5 MG INJECTED IN THE SCAPULAR REGION OF NEWBORN MICE ONCE): 48%, 5%, 90%, not calculated | tumour outcome (control, treated, inhibition, significance) (Carcinogen: DIETHYLNITROSAMINE, 55-18-5, 300 MG/L IN DRINKING WATER BEGINNING 3 D PRIOR TO FIRST CARCINOGEN DOSE AND CONTINUING TO 14 D POST LAST CARCINOGEN D, Route [Inhibitor]: ORAL, Species: RAT, Strain/Sex: BD6/FEMALE, Target Tissue: Type of Lesion: ESOPHAGUS: TUMOR, Dose [Carcinogen]: 80 MG/KG BW 1/WK FOR 9 WK): 50%, 54%, -8%, not significant | tumour outcome (control, treated, inhibition, significance) (Carcinogen: DIETHYLNITROSAMINE, 55-18-5, 300 MG/L IN DRINKING WATER BEGINNING 3 D PRIOR TO FIRST CARCINOGEN DOSE AND CONTINUING TO 14 D POST LAST CARCINOGEN D, Route [Inhibitor]: ORAL, Species: RAT, Strain/Sex: BD6/FEMALE, Target Tissue: Type of Lesion: LIVER: TUMOR, Dose [Carcinogen]: 80 MG/KG BW 1/WK FOR 9 WK): 100%, 95%, 5%, not significant
